Assay results published in paper PMC12126322, “Characterisation of the thermophilic P450 CYP116B305 identified using metagenomics-derived sequence data from an Australian hot spring” (Applied Microbiology and Biotechnology, 2025).
Each block holds one compound with its values, some of them ahead of it.

What was measured:
[1] = molecular target: CYP116B305; assay: Substrate binding by UV-visible difference spectroscopy (KD, heme spin-state shift); parameters: species or system Geminicoccaceae; conditions: for Kd: difference spectroscopy, CYP116B305 2–4 µM, substrate 0–100 µM; for Spin-state shift (%): low-spin to high-spin heme shift on substrate binding
[2] = tested on: CYP116B305; assay: NAD(P)H consumption assay (cofactor preference, oxidation rates); format: biochemical, Geminicoccaceae; conditions: for NADH consumption rates / NADPH consumption rates: 33% FMN inclusion, min^−1; for NADPH consumption rates (100% FMN rates) / NADH consumption rates (100% FMN rates): corresponding to full FMN incorporation, approximate maximum; for Km: cofactor oxidation in the presence of 2-HPA, read-out: KM of nicotinamide cofactor
Method: The consumption rates were calculated using nonlinear regression (GraphPad Prism), fitting to either the Michaelis–Menten or a quadratic velocity equation to determine the apparent KM and kcat values.

[3] = tested on: CYP116B305; assay: In vitro catalytic turnovers and coupling efficiency (GC-MS); format: biochemical, Geminicoccaceae; conditions: for Coupling (NADPH): product formed to NADPH consumed
Method: The reaction mixtures contained CYP116B305 (1 µM) in KPi buffer (50 mM, pH 7.4), catalase (1 µM), substrate (600 µM), and NAD(P)H (1.2 mM). Reactions were conducted at both room temperature (25 °C) and elevated temperature (45 °C) under constant stirring for 1 h. A control reaction, omitting the P450 enzyme, was also performed. Post-incubation, reaction mixtures were acidified to pH 0–2 with HCl (except for 4-methoxyacetophenone assays), followed by extraction with ethyl acetate (3 × 1 mL). The combined organic phases were dried over magnesium sulphate and concentrated to 100 µL under a stream of nitrogen gas. Concentrated samples were derivatised with N,O-bis(trimethylsilyl)trifluoroacetamide (BSTFA-TMS) before being analysed by gas chromatography–mass spectrometry (GC–MS; Zebron ZB-5MS column 30 m × 0.25 mm × 0.25 µm). The method was 50 °C for 5 min followed by increments of 16 °C min^−1 until 250 °C was reached, then held for 5 min.
For coupling efficiency analysis, the NAD(P)H concentration was reduced to 200 µM, and an internal standard (100 µM) was added to the reactions prior to acidification and extraction. […] In the case of 4-methoxyacetophenone, the reactions were stirred for 2 h, and product formation (4-hydroxyacetophenone) was then quantified using a standard curve generated from 4-hydroxyacetophenone (0.05–1 mM) and an internal standard (fluorene; 100 µM).

[4] = tested on: CYP116B305; assay: Cytochrome c reduction assay with NADPH as electron donor; format: biochemical, Geminicoccaceae; conditions: cytochrome c as artificial electron acceptor
Method: Similarly, a cytochrome c reduction assay was also performed to derive the kinetic parameters, following established protocols (Guengerich et al. [2009]; Tavanti et al. [2018b]). Reactions contained cytochrome c (equine heart, Sigma-Aldrich, 50 µM), CYP116B305 (200 nM), catalase (1 µM), and varying concentrations of NADPH (0.5–200 µM). Cytochrome c reduction was monitored as described above, and nonlinear regression analysis (GraphPad Prism) was utilised to determine the KM and kcat values.

[5] = in the presence of 2-HPA, 25 °C

Compound: NC(=O)C1=CN([C@@H]2O[C@H](COP(=O)(O)OP(=O)(O)OC[C@H]3O[C@@H](n4cnc5c(N)ncnc54)[C@H](O)[C@@H]3O)[C@@H](O)[C@H]2O)C=CC1 [NADH, reference compound]
- Km ([2]; 25 °C): 60 ± 15 µM
- kcat of nicotinamide cofactor oxidation [2, 5]: 0.65 ± 0.067 s⁻¹

Compound: O=C(O)Cc1ccccc1 [Phenylacetic acid]
- Kd [1]: 39 ± 11 µM
- Spin-state shift (%) [1]: 34 ± 6%
- Spin-state shift (%) ([1]; listed as phenylacetic acid): 34 ± 6%

Compound: NC(=O)C1=CN([C@@H]2O[C@H](COP(=O)(O)OP(=O)(O)OC[C@H]3O[C@@H](n4cnc5c(N)ncnc54)[C@H](OP(=O)(O)O)[C@@H]3O)[C@@H](O)[C@H]2O)C=CC1 [NADPH, reference compound]
- Km [4]: 1.2 ± 0.1 µM
- kcat for NADPH [4]: 0.0683 ± 0.0017 s⁻¹
- Km ([2]; 25 °C): 4.1 ± 0.3 µM
- fold lower KM compared to NADH [2, 5]: 15 fold
- kcat of nicotinamide cofactor oxidation [2, 5]: 0.217 ± 0.017 s⁻¹

Compound: COc1ccc(C(C)=O)cc1 [4-Methoxyacetophenone]
- NADH consumption rates ([2]; 25 °C): 2 ± 1 µM (µM^−1 P450) min^−1
- NADH consumption rates (100% FMN rates) ([2]; 25 °C): ~6 µM (µM^−1 P450) min^−1
- NADH consumption rates ([2]; 45 °C): 3 ± 1 µM (µM^−1 P450) min^−1
- NADPH consumption rates ([2]; 45 °C): 1 ± 1 µM (µM^−1 P450) min^−1
- NADH consumption rates (100% FMN rates) ([2]; 45 °C): ~9 µM (µM^−1 P450) min^−1
- NADPH consumption rates (100% FMN rates) ([2]; 45 °C): ~3 µM (µM^−1 P450) min^−1
- Kd [1]: 73 ± 6 µM
- Spin-state shift (%) [1]: 26 ± 3%
- Spin-state shift (%) ([1]; listed as 4-methoxyacetophenone): 26 ± 3%
- product formation with NADH as electron donor ([3]; 4-hydroxyacetophenone product, NADH): no product was observed
- Coupling (NADPH) ([3]; 25 °C): n.q
- Coupling (NADPH) ([3]; 45 °C, listed as 4-Methoxy acetophenone): 24 ± 5%
- Coupling (NADPH) ([3]; 45 °C, listed as 4-methoxyacetophenone): 24 ± 5%

Second part, led by results:

- Kd [1]: 61 ± 19 µM
- Spin-state shift (%) [1]: 13 ± 4%
- Spin-state shift (%) ([1]; listed as trans-cinnamic acid): 13 ± 4%
Compound: O=C(O)/C=C/c1ccccc1 [trans-Cinnamic acid]

- Kd [1]: 0.4 ± 0.2 µM
- Spin-state shift (%) [1]: 90 ± 5%
- Spin-state shift (%) ([1]; listed as 3-(2-Hydroxyphenyl)propionic acid (HPPA)): 90 ± 5%
Compound: O=C(O)CCc1ccccc1O [HPPA, 3-(2-hydroxyphenyl)propionic acid]
- NADH consumption rates ([2]; 25 °C): 31 ± 3 µM (µM^−1 P450) min^−1
- NADPH consumption rates ([2]; 25 °C): 11 ± 1 µM (µM^−1 P450) min^−1
- NADPH consumption rates (100% FMN rates) ([2]; 25 °C): ~33 µM (µM^−1 P450) min^−1
- fold increase of NADH oxidation rate ([2]; 45 °C compared to 25 °C): 2.4 fold
- fold increase of NADPH oxidation rate ([2]; 45 °C compared to 25 °C): sixfold
- NADH consumption rates ([2]; 45 °C): 73 ± 2 µM (µM^−1 P450) min^−1
- NADPH consumption rates ([2]; 45 °C): 65 ± 3 µM (µM^−1 P450) min^−1
- NADH consumption rates (100% FMN rates) ([2]; 45 °C): ~221 µM (µM^−1 P450) min^−1
- NADPH consumption rates (100% FMN rates) ([2]; 45 °C): ~196 µM (µM^−1 P450) min^−1
- Coupling (NADPH) ([3]; 25 °C): 15 ± 2%
- Coupling (NADH) ([3]; 45 °C, product formed to NADH consumed): 15 ± 9%
- Coupling (NADPH) ([3]; 45 °C): 26 ± 1%

- Kd [1]: 43 ± 6 µM
- Spin-state shift (%) [1]: 25 ± 2%
- Spin-state shift (%) ([1]; listed as salicylic acid): 25 ± 2%
Compound: O=C(O)c1ccccc1O [Salicylic acid]

- Kd [1]: 65 ± 13 µM
- Spin-state shift (%) [1]: 17 ± 1%
- Spin-state shift (%) ([1]; listed as 4-hydroxyphenylacetic acid): 17 ± 1%
Compound: O=C(O)Cc1ccc(O)cc1 [4-Hydroxyphenylacetic acid]
